This test concerns the target T1, human S1P1 receptors (Homo sapiens, UniProt P21453).
T1 construct: host or cells: HEK293
Nature of the test: S1P1R antagonist assay (fluorescent membrane potential dye, cAMP readout). Format: cell-based. As to conditions: HEK293 cells expressing human S1P1 receptors and CNG channel; 500 nM NECA; S1P1R agonist 10 nM; 90 minutes; read-out: EC50 or IC50 value.
T1 sequence (P21453 whole entry): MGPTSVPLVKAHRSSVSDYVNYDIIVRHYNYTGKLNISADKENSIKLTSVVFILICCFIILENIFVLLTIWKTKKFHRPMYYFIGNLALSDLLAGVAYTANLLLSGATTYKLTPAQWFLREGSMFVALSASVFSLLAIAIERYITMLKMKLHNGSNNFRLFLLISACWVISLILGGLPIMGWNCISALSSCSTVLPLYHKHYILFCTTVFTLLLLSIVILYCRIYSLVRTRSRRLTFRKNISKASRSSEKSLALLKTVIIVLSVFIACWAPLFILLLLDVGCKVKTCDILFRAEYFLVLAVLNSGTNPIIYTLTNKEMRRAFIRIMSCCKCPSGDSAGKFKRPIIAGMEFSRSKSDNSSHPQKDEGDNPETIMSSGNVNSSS
Turning to `O=C(CCc1cnc[nH]1)N[C@@H](COCc1ccccc1)C(=O)Nc1ccc(Oc2ccc(F)cc2)cc1` [Compound 207, (S)-2-(3-(1H-imidazol-5-yl)propanamido)-3-(benzyloxy)-N-(4-(4-fluorophenoxy)phenyl)propanamide], the IC50 (in general, the concentration that gives 50% inhibition) was at most 300 nM.
With `O=C(Nc1ccc(Oc2ccc(F)cc2)cc1)[C@@H]1C[C@@H](Cc2ccccc2C(F)(F)F)CN1C(=O)Cn1cncn1` [Compound 54, (2S,4R)-1-(2-(1H-1,2,4-triazol-1-yl)acetyl)-N-(4-(4-fluorophenoxy)phenyl)-4-(2-(trifluoromethyl)benzyl)pyrrolidine-2-carboxamide], the IC50 was at most 300 nM.
Under `O=C(Nc1ccc(Oc2ccc(F)cc2)cc1)[C@@H]1C[C@@H](Cc2c(F)cc(F)cc2F)CN1C(=O)Cn1nccn1` [Compound 169, (2S,4R)-1-(2-(2H-1,2,3-triazol-2-yl)acetyl)-N-(4-(4-fluorophenoxy)phenyl)-4-(2,4,6-trifluorobenzyl)pyrrolidine-2-carboxamide] stands at most 300 nM; under `O=C(Nc1ccc(Oc2ccc(F)cc2)cc1)[C@@H]1C[C@@H](Cc2ccc(F)cc2Cl)CN1C(=O)Cn1ccnn1` [Compound 2, (2S,4R)-1-(2-(1H-1,2,3-triazol-1-yl)acetyl)-4-(2-chloro-4-fluorobenzyl)-N-(4-(4-fluorophenoxy)phenyl)pyrrolidine-2-carboxamide], at most 300 nM; under `O=C(Nc1ccc(Oc2ccc(F)cc2)cc1)[C@@H]1CN(Cc2ccccc2)CCN1C(=O)Cc1cnc[nH]1` [Compound 175, (S)-1-(2-(1H-imidazol-4-yl)acetyl)-4-benzyl-N-(4-(4-fluorophenoxy)phenyl)piperazine-2-carboxamide], at most 300 nM.
Under `CC(=O)Oc1ccc(C(=O)NC(COCc2ccccc2)C(=O)Nc2ccc(Oc3ccccc3)cc2)cc1` (stereo not shown) [Compound 17, 4-(3-(benzyloxy)-1-oxo-1-(4-phenoxyphenylamino)propan-2-ylcarbamoyl)phenyl acetate] stands above 1000 nM; under `O=C(CCN1C(=O)c2ccccc2C1=O)NC(COCc1ccccc1)C(=O)Nc1ccc(Oc2ccccc2)cc1` (stereo not shown) [Compound 322, N-(2-oxo-1-{[(phenylmethyl)oxy]methyl}-2-{[4-(phenyloxy)phenyl]amino}ethyl)-3-(1,3-dioxoisoindolin-2-yl)propanamide], above 1000 nM.
Then `CC(C)N1CCN(CC(=O)N[C@@H](COCc2ccccc2)C(=O)Nc2ccc(Oc3ccc(F)cc3)cc2)CC1` [Compound 111, (S)-3-(benzyloxy)-N-(4-(4-fluorophenoxy)phenyl)-2-(2-(4-isopropylpiperazin-1-yl)acetamido)propanamide], with above 1000 nM; and `CSc1ccc(C(=O)NC(COCc2ccccc2)C(=O)Nc2ccc(Oc3ccccc3)cc2)cc1` (stereo not shown) [Compound 306, 4-(methylthio)-N-(2-oxo-1-{[(phenylmethyl)oxy]methyl}-2-{[4-(phenyloxy)phenyl]amino}ethyl)benzamide], with above 1000 nM.
`O=C(Nc1ccc(Oc2ccc(F)cc2)cc1)[C@@H]1C[C@@H](Cc2ccc(Cl)s2)CN1C(=O)Cn1nccn1` [Compound 66, (2S,4S)-1-(2-(2H-1,2,3-triazol-2-yl)acetyl)-4-((5-chlorothien-2-yl)methyl)-N-(4-(4-fluorophenoxy)phenyl)pyrrolidine-2-carboxamide]: the IC50 is at most 300 nM.
Under `Cc1ccc(OCC(=O)NC(COCc2ccccc2)C(=O)Nc2ccc(Oc3ccccc3)cc2)cc1` (stereo not shown) [Compound 393, N-(2-oxo-1-{[(phenylmethyl)oxy]methyl}-2-{[4-(phenyloxy)phenyl]amino}ethyl)-2-(p-tolyloxy)acetamide] stands above 1000 nM; under `O=C(NC(COCc1ccccc1)C(=O)Nc1ccc(Oc2ccccc2)cc1)c1ccc2cc[nH]c2c1` (stereo not shown) [Compound 187, N-(3-(benzyloxy)-1-oxo-1-(4-phenoxyphenylamino)propan-2-yl)-1H-indole-6-carboxamide], 300 to 1000 nM.
Under `COCCC(=O)N1C[C@H](Cc2ccccc2)C[C@H]1C(=O)Nc1ccc(Oc2ccc(F)cc2)cc1` [Compound 90, (2S,4R)-4-benzyl-N-(4-(4-fluorophenoxy)phenyl)-1-(3-methoxypropanoyl)pyrrolidine-2-carboxamide] stands at most 300 nM.
As for `CO[C@H](C(=O)NC(COCc1ccccc1)C(=O)Nc1ccc(Oc2ccccc2)cc1)c1ccccc1` (stereo partly drawn) [Compound 381, N-(2-oxo-1-{[(phenylmethyl)oxy]methyl}-2-{[4-(phenyloxy)phenyl]amino}ethyl)-2S-methoxy-2-phenylacetamide], the IC50 was above 1000 nM.
Take `O=C(Cc1cnccn1)N[C@@H](COCc1ccccc1)C(=O)Nc1ccc(Oc2ccc(F)cc2)cc1` [Compound 159, (S)-3-(benzyloxy)-N-(4-(4-fluorophenoxy)phenyl)-2-(2-(pyrazin-2-yl)acetamido)propanamide]: the IC50 is at most 300 nM.
Under `O=C(Cc1cnc[nH]1)N[C@@H](COCc1ccccc1)C(=O)Nc1ccc(OC2CCCCC2)cc1` [Compound 208, (S)-2-(2-(1H-imidazol-5-yl)acetamido)-3-(benzyloxy)-N-(4-(cyclohexyloxy)phenyl)propanamide] stands 300 to 1000 nM; under `Cc1ccc(Oc2ccc(NC(=O)[C@H](COCc3ccccc3)NC(=O)Cc3c[nH]cn3)cc2)cc1` [Compound 158, (S)-2-(2-(1H-imidazol-5-yl)acetamido)-3-(benzyloxy)-N-(4-(p-tolyloxy)phenyl)propanamide], at most 300 nM.
`O=C(NC(COCc1ccccc1)C(=O)Nc1ccc(Oc2ccccc2)cc1)c1cccc2cccnc12` (stereo not shown) [Compound 357, N-(2-oxo-1-{[(phenylmethyl)oxy]methyl}-2-{[4-(phenyloxy)phenyl]amino}ethyl)quinoline-8-carboxamide]: the IC50 fell in the range of 300 to 1000 nM.
Under `O=C(NC(COCc1ccccc1)C(=O)Nc1ccc(Oc2ccccc2)cc1)c1ccc(-c2cccc(C(F)(F)F)c2)o1` (stereo not shown) [Compound 321, N-(2-oxo-1-{[(phenylmethyl)oxy]methyl}-2-{[4-(phenyloxy)phenyl]amino}ethyl)-5-[3-(trifluoromethyl)phenyl]furan-2-carboxamide] stands above 1000 nM.
Then `O=C(N[C@@H]1C[C@@H](C(=O)Nc2ccc(Oc3ccc(F)cc3)cc2)N(C(=O)Cc2cnc[nH]2)C1)OCc1ccccc1` [Compound 253, benzyl (3R,5S)-1-(2-(1H-imidazol-5-yl)acetyl)-5-(4-(4-fluorophenoxy)phenylcarbamoyl)pyrrolidin-3-ylcarbamate], with at most 300 nM; and `CCN(CC)C1CCN(CC(=O)N[C@@H](COCc2ccccc2)C(=O)Nc2ccc(Oc3ccc(F)cc3)cc2)C1` (stereo partly drawn) [Compound 109, (2S)-3-(benzyloxy)-2-(2-(3-(diethylamino)pyrrolidin-1-yl)acetamido)-N-(4-(4-fluorophenoxy)phenyl)propanamide], with above 1000 nM.
Then `O=C(Nc1ccc(Oc2ccc(F)cc2)cc1)[C@@H]1C[C@@H](Cc2ccccc2F)CN1C(=O)Cn1cncn1` [Compound 106, (2S,4R)-1-(2-(1H-1,2,4-triazol-1-yl)acetyl)-4-(2-fluorobenzyl)-N-(4-(4-fluorophenoxy)phenyl)pyrrolidine-2-carboxamide], with at most 300 nM; and `O=C(NC(COCc1ccccc1)C(=O)Nc1ccc(Oc2ccccc2)cc1)c1ccc([N+](=O)[O-])o1` (stereo not shown) [Compound 326, 5-nitro-N-(2-oxo-1-{[(phenylmethyl)oxy]methyl}-2-{[4-(phenyloxy)phenyl]amino}ethyl)furan-2-carboxamide], with at most 300 nM.
Take `CCCC(=O)NC(COCc1ccccc1)C(=O)Nc1ccc(Oc2ccccc2)cc1` (stereo not shown) [Compound 273, N-(2-oxo-1-{[(phenylmethyl)oxy]methyl}-2-{[4-(phenyloxy)phenyl]amino}ethyl)butanamide]: the IC50 was above 1000 nM.
For the molecule `CCCCCC(=O)NC(COCc1ccccc1)C(=O)Nc1ccc(Oc2ccccc2)cc1` (stereo not shown) [Compound 295, N-(2-oxo-1-{[(phenylmethyl)oxy]methyl}-2-{[4-(phenyloxy)phenyl]amino}ethyl)hexanamide], the IC50 is above 1000 nM.
Consider `COCCOCCOCC(=O)NC(COCc1ccccc1)C(=O)Nc1ccc(Oc2ccccc2)cc1` (stereo not shown) [Compound 315, N-(2-oxo-1-{[(phenylmethyl)oxy]methyl}-2-{[4-(phenyloxy)phenyl]amino}ethyl)-2-[2-(methoxy)ethoxy]ethoxyacetamide], for which the IC50 was above 1000 nM.
With `O=C(Cc1c(F)ccc(F)c1F)NC(COCc1ccccc1)C(=O)Nc1ccc(Oc2ccccc2)cc1` (stereo not shown) [Compound 361, N-(2-oxo-1-{[(phenylmethyl)oxy]methyl}-2-{[4-(phenyloxy)phenyl]amino}ethyl)-2-(2,3,6-trifluorophenyl)acetamide], the IC50 is above 1000 nM.
Under `Cc1cc(F)ccc1Oc1ccc(NC(=O)[C@@H]2C[C@@H](Cc3ccc(F)cc3)CN2C(=O)Cn2cncn2)cc1` [Compound 74, (2S,4R)-1-(2-(1H-1,2,4-triazol-1-yl)acetyl)-N-(4-(4-fluoro-2-methylphenoxy)phenyl)-4-(4-fluorobenzyl)pyrrolidine-2-carboxamide] stands at most 300 nM; under `O=C(Nc1ccc(Oc2ccc(F)cc2)cc1)[C@@H]1C[C@@H](Cc2ccccc2)CN1C(=O)[C@H](O)c1ccccc1` [Compound 40, (2S,4R)-4-benzyl-N-(4-(4-fluorophenoxy)phenyl)-1-((R)-2-hydroxy-2-phenylacetyl)pyrrolidine-2-carboxamide], at most 300 nM; under `O=C(CN1C(=O)CSC1=S)NC(COCc1ccccc1)C(=O)Nc1ccc(Oc2ccccc2)cc1` (stereo not shown) [Compound 335, N-(2-oxo-1-{[(phenylmethyl)oxy]methyl}-2-{[4-(phenyloxy)phenyl]amino}ethyl)-2-(4-oxo-2-thioxothiazolidin-3-yl)acetamide], above 1000 nM.
Under `O=C(NC(COCc1ccccc1)C(=O)Nc1ccc(Oc2ccccc2)cc1)c1cccc(O)n1` (stereo not shown) [Compound 358, 6-hydroxy-N-(2-oxo-1-{[(phenylmethyl)oxy]methyl}-2-{[4-(phenyloxy)phenyl]amino}ethyl)pyridine-2-carboxamide] stands above 1000 nM.

These data come from patent US8791102B2, “Acetanilide sphingosine-1-phosphate receptor antagonists” (Exelixis, Inc., priority 2008, dated 2014).
